According to patent publication US20210222105A1, “A Microfluidic Cartridge, A Kit And An Assay” (CENTRE FOR CELLULAR AND MOLECULAR PLATFORMS, priority 2018, published 2021):

Key:
Format in all cases: cell-based, Escherichia coli
[1] = system: E. coli ATCC 25922; assay: Agent susceptibility phenotypic assay, microfluidic cartridge compared with 96 well plate; conditions: 0.5, 1, 2 and 4 μg/ml tested; 0.5 MCF inoculum; cation adjusted Muller Hinton broth; FIG. 14
Protocol: The agent susceptibility assay was carried out in a microfluidic cartridge. This assay was also carried out in a micro-titer plate as a standard reference control. Bacterial/clinical sample grown at suitable turbidity or at least about 0.3 to about 1.0 McFarland unit was transferred to the microchamber. The microchamber had microbial growth sensors (pH sensor) at concentration of about 5 μM to about 50 μM, cation adjusted Muller Hinton broth or suitable microbial growth media, and antibiotics concentration based on CLSI guidelines. The total reaction volume range was from about 6 μl to about 150 μl. Plate/test card were sealed using plate sealer or lamination film and incubated at about 32° C. to about 37° C., at about 300-500 rpm orbital shaking. The change in the fluorescence intensity of pH sensors was measured using fluorescence reader after every 20-60 minutes till about 4-7 hours incubation period. Thus, the susceptibility or resistance of the microorganism was assessed towards the agent.
Agent susceptibility was tested on microfluidic cartridge and the outcome compared with optimized 96 well plate. Phenotypic assay was optimized on 96 well pate, briefly, an overnight grown E. coli ATCC25922 culture was dispersed in cation adjusted muller Hinton broth to prepare inoculum of 0.5 MCF unit.

[2] = system: E. coli ATCC 25922 QC strain; assay: Qualitative phenol red colour-change test of microbial growth in microfluidic cartridge and 96 well plate; conditions: 37° C., results in 3 hour, FIG. 15
Protocol: Qualitative test was performed to check microbial growth in the microfluidic cartridge. Phenol red (about 0.05% w/v) containing cation adjusted Muller Hinton broth was used as susceptibility indicator. Microbial growth changes pH and Phenol red changes color with pH variation. Thus, a colour change could provide a read-out on the susceptibility or resistance of a microorganism. No color change would indicate no growth as a response to antibiotics. Briefly, microfluidic cartridge was cleaned with water and then rinsed with 70% ethanol and then UV sterilized by exposing under UV light for about 30 minutes. To compare the susceptibility test preformed on the microfluidic cartridge and 96 well plate, master mix of about 150 μl was prepared on 96 well plate and 6 μl o the master mix was used in microchamber of the microfluidic cartridge. Both 96 well plate and microfluidic cartridge was sealed with lamination film and incubated at 37° C. and change in color intensity was recorded (illustrated in FIG. 15). […] The results were obtained in 3 hour and design of the microfluidic cartridge was suitable for microbial growth and no cross contamination was observed.

[3] = system: E. coli; assay: Agent susceptibility test in microfluidic cartridge with DNA-based pH sensor (FRET, donor fluorescence); conditions: 5×10^5 CFU/ml, 37° C., up to 6 hour incubation, FIGS. 17, 19
Protocol: About 5 μM sensor was prepared and stored at about 4° C. overnight for equilibration of the sensors. Overnight grown cultures of E. coli, S. aureus, E. faecalis was picked from LB agar plate and dispersed in cation adjusted Mueller Hinton broth with 1% glucose. The concentration of the cells were adjusted to 0.5 MFU. antibiotic dilution was prepared according to CSI guidelines. Stock solutions were prepared in 96 well plate using 23 μl of cation adjusted Muller Hinton broth, 25 μl of desired concentration of antibiotic and 2 μl of 5 μM sensors. Then 50 μl of 1×10^6 CFU/ml inoculum was added in wells to achieve inoculum size 5×10^5 CFU/ml in final assay volume. Each stock solution was loaded on microfluidic cartridge. Microfluidic cartridge was sealed with polypropylene sealing film and incubated at 37° C. with 70% humidity. The change in the donor fluorescence intensity was recorded till 6 hour incubation. Each microchamber of the microfluidic cartridge was image using 1×73 Olympus inverted fluorescence microscope. Images were analyzed using ImageJ version 1.8.0. the average was taken over replicate and standard deviation was calculated (illustrated in FIG. 18).

Row | SMILES | amikacin concentration at which E. coli ATCC 25922 showed susceptibility [1] [µg/mL] | change in colour of indicator dye (phenol red) ([2]; amikacin concentration above 2 μg/ml) | change in colour of indicator dye (phenol red) ([2]; at 0.5 and 1 ug/ml amikacin) | sensitivity cut of value [3]
1 | NCC[C@H](O)C(=O)N[C@@H]1C[C@H](N)[C@@H](O[C@H]2O[C@H](CN)[C@@H](O)[C@H](O)[C@H]2O)[C@H](O)[C@H]1O[C@H]1O[C@H](CO)[C@@H](O)[C@H](N)[C@H]1O [amikacin] | 2 | no change in the color intensity | change in the color of indicator dye | 
2 | CCN1CCN(C(=O)N[C@@H](C(=O)N[C@@H]2C(=O)N3[C@@H]2SC(C)(C)[C@@H]3C(=O)O)c2ccccc2)C(=O)C1=O [piperacillin] |  |  |  | about 2 μg/ml
